We go through 17 compounds from patent US4617393A, “5-substituted-6-aminopyrimidines, composition and uses as cardiotonic agents for increasing cardiac contractility” (American Home Products Corporation, priority 1985, dated 1986).

Assay [1] deals with Pentobarbital-Induced Cardiac Failure in the Dog. As to the kind of experiment: Pentobarbital-induced Cardiac Failure in the Dog. The format is in vivo. The following applies: Canis lupus familiaris, iv, anesthetized dog, read-out: ED50 (dose i.v. to give a 50% increase in dP/dt). On the procedure:
Pentobarbital-induced Cardiac Failure in the Dog
A dog of either sex was anesthetized with Na pentobarbital, 30-35 mg/kg i.v. The trachea was intubated and the animal was respired at a rate of 20 breaths/min (stroke volume=15 cc/kg). Both femoral veins were cannulated. One cannula was used for infusion of pentobarbital to induce and maintain failure, the other for injection of test compounds. A cannual was inserted into the aorta via a femoral artery and the cannula was attached to a blood pressure transducer for measurement of systolic, diastolic and mean aortic blood pressure. A Millar pressure-tip catheter was inserted into the other femoral artery and advanced into the left ventricle to record intraventricular pressure and dP/dt. Subdermal needle electrodes were used to record a lead II electrocardiogram and heart rate.
Following a stabilization period of at least 30 min, experimental failure was induced by the i.v. infusion of Na pentobarbital, 0.75 mg/kg/min in 0.2 mL of saline/min, until a 40-50% decrease in peak positive dP/dt was obtained. The failure state was maintained at this level throughout the experiment by continuous infusion of Na pentobarbital, 0.11-0.15 mg/kg/min. Once the maintenance infusion was started, at least 15 min were allowed to elapse before test drugs were administered.
Test compounds were prepared in N saline. Increasingly higher doses were given i.v. at 30 min-1 hr intervals in order to determine a therapeutic (50% increase in dP/dt) to toxic (appearance of arrhythmias) ratio where possible.
Using this method, the following representative compounds of formula I were effective for increasing the cardiac contractility of the heart (the amount of test compound in mg per kg of body weight administered i.v. to give a 50% increase in dP/dt.

Assay [2] deals with Isolated Cat Papillary Muscle. As to the kind of experiment: Test for Cardiotonic Activity in Isolated Cat Papillary Muscle. Particulars: Felis catus; for EC50: increase in force of contraction, stimulated at 0.5 Hz, 37° C.; for activation at 100 µM: read-out: % increase (force of contraction). The format is cell-based. How it is done: Test for Cardiotonic Activity in Isolated Cat Papillary Muscle
A cat of either sex was anesthetized with Na pentobarbital, 25-30 mg/kg i.v. The heart was rapidly removed and placed in cool Tyrode's solution which had been equilibrated with 95% O2 -5% CO2. The right ventricle was opened by cutting down the sides and around the apex so that the free wall could be folded back on the atriventricular groove. Usually at least three suitably-sized papillary muscles were found (1 mm or less in thickness). Threads were tied around the chordae tendonae and the base of the muscle just above its point of insertion into the ventricular wall. The chordae were cut, and the muscle was removed along with a small button of ventricular wall. If a sufficient number of papillary muscles were not present, trabeculae carnae could also be used. The best ones were usually found inserting just under the valve.
The preparations were mounted in tissue baths containing Tyrode's solution at 37° C. bubbled with 95% O2 -5% CO2. One thread was affixed to a tissue holder incorporating a pair of platinum electrodes and the other thread was attached to a force displacement transducer. Initial tension placed on the preparation was 0.2 g (less for very small muscles). The preparations were stimulated with square-wave pulses, 2-4 msec. in duration and 10% above threshold voltage, at a rate of 0.5 Hz. […] The preparations were then allowed to equilibrate for one hour with frequent changes of the bathing fluid (10-15 min. intervals). The test compound was added to the bath in 0.1 mL of vehicle and incubated with the preparation for 15 min. or until peak effect was attained.
Using this method, the following representative compounds of formula I were effective for increasing the force of contraction of the papillary muscle.

By EC50 is commonly meant the concentration that produces a half-maximal response.

The structures appear in SMILES notation. Where two headings read alike, the source gives them in different places.

For the compound `Cc1nc(O)c(Br)c(NCc2cccnc2)n1` [Example 1, 5-Bromo-2-methyl-6-[(3-pyridinylmethyl)amino]-4-pyrimidinol], in assay [1], the ED50 stood at 0.012 mg/kg. Further, the EC50 in assay [2] worked out at 2.5 µM.

`Cc1nc(=O)c(C)c(NCCc2cccn2C)[nH]1` [Example 2, 1,4-Dihydro-2,5-dimethyl-6-[[2-(1-methyl-1H-pyrrol-2-yl)ethyl]amino]-4-pyrimidinone] came in with a 50% effective concentration (EC50) in assay [2] of 2.9 µM.

Regarding `Cc1nc(O)c(Cl)c(NCc2cccnc2)n1` [Example 3, 5-Chloro-2-methyl-6-[(3-pyridinylmethyl)amino]-4-pyrimidinol], the ED50 in assay [1] was determined as 0.02 mg/kg. This compound also displayed an EC50 in assay [2] of 1 µM.

In the case of `Cc1nc(O)c(Cl)c(NCCc2ccccc2)n1` [Example 4, 5-Chloro-2-methyl-6-[(2-phenylethyl)amino]-4-pyrimidinol], the ED50 in assay [1] turned out to be 0.04 mg/kg. In assay [2], the response was half-maximal at 1.5 µM (EC50).

Turning to `Cc1nc(=O)c(C)c(NCc2cccnc2)[nH]1` [Example 5, 1,4-Dihydro-2,5-dimethyl-6-[(3-pyridinylmethyl)amino]-pyrimidine-4-one], in assay [1], the ED50 is 0.05 mg/kg. For the same compound, the EC50 in assay [2] is 11 µM.

In the case of `Cc1nc(=O)c(F)c(NCc2cccnc2)[nH]1` [Example 6, 5-Fluoro-1,4-dihydro-2-methyl-6-[(3-pyridinylmethyl)amino]-4-pyrimidinone], the activation at 100 µM in assay [2] (at 10^-4 M) was 69%.

With `Cc1nc(O)c(C(C)C)c(NCc2cccnc2)n1` [Example 7, 2-Methyl-5-(1-methylethyl)-6-[(3-pyridinylmethyl)amino]-4-pyrimidinol], the ED50 in assay [1] is 0.13 mg/kg. Moreover, the EC50 in assay [2] is 7.4 µM.

On to `Cc1nc(O)c(C)c(NCCc2ccncc2)n1` [Example 8, 2,5-Dimethyl-6-[(2-(4-pyridinyl)ethyl)amino]-4-pyrimidinol], for which the activation at 100 µM in assay [2] (at 10^-4 (unit inferred)) amounted to 52%.

For `Cc1nc(O)c(Br)c(NCCc2ccccc2)n1` [Example 9, 5-Bromo-2-methyl-6-[(2-phenylethyl)amino]-4-pyrimidinol], the ED50 in assay [1] is 0.03 mg/kg. A half-maximal response in assay [2] (unit inferred) (EC50) required 13 µM.

In the case of `Cc1nc(O)c(Br)c(NCCc2ccncc2)n1` [Example 10, 5-Bromo-2-methyl-6-[[2-(4-pyridinyl)ethyl]amino]-4-pyrimidinol], the EC50 in assay [2] (unit inferred) stood at 250 µM.

Consider `Cc1nc(O)c(C)c(NCc2ccco2)n1` [Example 11, 6-[(2-Furanylmethyl)amino]-2,5-dimethyl-4-pyrimidinol], for which the midpoint of the response in assay [2], the EC50, lay at 10 µM.

Take `CCNc1nc(C)nc(O)c1C` [Example 12, 6-(Ethylamino)-2,5-dimethyl-4-pyrimidinol]: in assay [1], the ED50 came to 0.04 mg/kg. In assay [2], the response was half-maximal at 5 µM (EC50).

Regarding `Cc1nc(O)c(C)c(NCC2CC2)n1` [Example 13, 6-[(Cyclopropylmethyl)amino]-2,5-dimethyl-4-pyrimidinol], in assay [1], the ED50 was found to be 0.05 mg/kg. The same compound yielded an EC50 in assay [2] of 3.7 µM.

For the compound `CCNc1nc(C)nc(O)c1C(C)C` [Example 14, 6-(Ethylamino)-2-methyl-5-(1-methylethyl)-4-pyrimidinol], in assay [1], the ED50 came out at 0.04 mg/kg. In addition, in assay [2] (at 10^-4 M), the activation at 100 µM turned out to be 86%.

In the case of `CCNc1[nH]c(C)nc(=O)c1Br` [Example 15, 5-Bromo-1,4-dihydro-6-(ethylamino)-2-methyl-4-pyrimidinone], in assay [1], the ED50 came to 0.01 mg/kg. In assay [2], this compound gave an EC50 of 2.8 µM.

`Cc1nc(O)c(Br)c(NCCO)n1` [Example 16, 5-Bromo-6-[(2-hydroxyethyl)amino]-2-methyl-4-pyrimidinol]: the 50% effective concentration (EC50) in assay [2] is 8.2 µM.

On to `Cc1nc(O)c(C(C)C)c(NCC2CC2)n1` [Example 17, 6-[(Cyclopropylmethyl)amino]-2-methyl-5-(1-methylethyl)-4-pyrimidinol], for which, in assay [1], the ED50 worked out at 0.5 mg/kg. In addition, the activation at 100 µM in assay [2] (at 10^-4 M) was found to be 185%.
